Experimental data reported in patent US4803217A, “Hapalindolinone compounds as vassopressin antagonists” (Merck & Co., Inc., priority 1986, dated 1989).

Legend:
[1] = target: T1, V1 (pressor) vasopressin receptor, rat liver crude membrane preparation (Rattus norvegicus, UniProt P30560); assay: [3H]Arginine Vasopressin Binding Assay, liver (V1); conditions: rat liver membranes; mean, n = 3; read-out: IC50 Values, 3H-Arg8-Vasopressin Binding, Liver (V1)
T1 construct: crude membrane preparation of rat liver (V1 receptor); from tissue; host or cells: rat liver, crude membrane preparation
Excerpt: (§1) The table summarizes the in vitro potency of the compound to compete for ^3 H-vasopressin binding at two proposed vasopressin receptor subtypes (V1, V2), as well as to inhibit vasopressin-stimulated adenylate cyclase-activity, a further measure of vasopressin antagonism.
(§2) The [^3 H]Arginine Vasopressin Binding Assay is an in vitro procedure which was adapted from the method of Guillon et al., Eur. J. Pharmacol. 85: 219-304 (1982). It measures the relative affinity of the compound for vasopressin receptor(s) labelled by [^3 H]vasopressin. Vasopressin receptors have been divided into two subtypes pharmacollogically: the V1 (pressor)-receptor found in liver and vascular smooth muscle and the V2 (antidiuretic) receptor found in kidney medulla. The binding assay uses a crude membrane preparation of rat liver (V1 receptor) or kidney medulla (V2 receptor) which is incubated with [^3 H]vaspopressin in the presence or absence of the test compound. The IC50 values (concentrations to inhibit [^3 H]vasopressin binding by 50%) for the compound (see Table VI) are measures of their potencies and are inversely related to their affinities.

[2] = target: T2, V2 (antidiuretic) vasopressin receptor, kidney medulla crude membrane preparation (Rattus norvegicus, UniProt Q00788); assay: [3H]Arginine Vasopressin Binding Assay, kidney medulla (V2); conditions: kidney medulla membranes; mean with standard error, n = 3; read-out: IC50 Values, 3H-Arg8-Vasopressin Binding, Kidney (V2)
T2 construct: crude membrane preparation of rat liver (V1 receptor) or kidney medulla (V2 receptor); from tissue; host or cells: kidney medulla, crude membrane preparation
Excerpt: as §1, §2

[3] = target: vasopressin-stimulated adenylate cyclase, Kidney (V2); assay: Inhibition of vasopressin-stimulated adenylate cyclase in kidney medulla (V2 antagonism); format: biochemical; conditions: conversion of ATP to cAMP, mean, n = 2, read-out: IC50 Values, AVP-stimulated Ad. Cyclase, Kidney (V2)
Excerpt: as §1
Vasopressin exerts its antidiuretic effects on the kidney through the stimulation of adenylate cyclase activity. Vasopressin-stimulated adenylate cyclase in kidney medulla, therefore, is used as a functional assay to determine the potencies of the test compound as V2 -vasopressin antagonists. In this assay, the IC50 value obtained for the compound IA (see Table IV) is a measure of its potency to inhibit the vasopressin-stimulated conversion of ATP to CAMP by adenylate cyclase. This method was adapted from Seamon et al., PNAS 78: 3363-3367 (1981).

T2 sequence (Q00788 whole entry): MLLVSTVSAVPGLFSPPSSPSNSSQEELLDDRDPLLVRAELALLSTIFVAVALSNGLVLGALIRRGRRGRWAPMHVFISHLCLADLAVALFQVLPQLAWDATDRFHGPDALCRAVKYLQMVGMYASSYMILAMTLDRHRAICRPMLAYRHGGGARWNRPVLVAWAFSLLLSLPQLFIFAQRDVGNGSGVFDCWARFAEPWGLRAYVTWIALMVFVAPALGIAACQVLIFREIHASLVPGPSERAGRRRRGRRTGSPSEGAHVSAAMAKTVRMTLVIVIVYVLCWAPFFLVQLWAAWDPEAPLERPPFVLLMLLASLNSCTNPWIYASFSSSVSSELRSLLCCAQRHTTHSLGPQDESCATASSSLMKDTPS
T1 sequence (P30560 whole entry): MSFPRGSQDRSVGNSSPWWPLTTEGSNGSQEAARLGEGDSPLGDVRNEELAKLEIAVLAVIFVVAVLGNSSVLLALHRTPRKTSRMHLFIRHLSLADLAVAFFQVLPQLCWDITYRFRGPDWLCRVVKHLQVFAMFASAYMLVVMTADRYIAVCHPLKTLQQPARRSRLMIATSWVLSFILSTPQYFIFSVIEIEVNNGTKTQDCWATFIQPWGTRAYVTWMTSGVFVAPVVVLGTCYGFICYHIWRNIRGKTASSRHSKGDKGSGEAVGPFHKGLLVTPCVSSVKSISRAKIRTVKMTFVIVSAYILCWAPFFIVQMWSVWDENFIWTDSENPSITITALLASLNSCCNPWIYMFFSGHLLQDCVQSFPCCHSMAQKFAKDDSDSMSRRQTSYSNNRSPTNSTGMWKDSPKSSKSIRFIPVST

[C-]#[N+]C12C(C(C(=C)C)CC(Cl)C1(C)C=C)C21C(=O)Nc2ccccc21 (stereo not drawn) [Formula IA, Hapalindolinone A]
IC50 [1]: > 100 µM
IC50 [2]: 37.5 ± 7.6 µM
IC50 [3]: 44.6 µM
